According to patent US20120282356A1, “COMPOSITIONS FOR PREVENTION AGAINST SPOILAGE BY MOULDS AND YEASTS AND USES AND PRODUCTS RELATED THERETO” (MARS INCORPORATED, priority 2009, published 2012):

System: Aspergillus niger DSMZ 737
Assay: Minimum Inhibition Concentration (MIC) test in YG broth cell culture plates
Type: cell-based
Settings: substance alone, 3 days at 30° C., no visible growth of mycelium
Procedure: Further tests have been conducted to establish synergistic activity of the antimycotic cocktails of the present invention. These tests are based on determination of the Minimum Inhibition Concentration (MIC).
For the tests, cell culture plates with YG broth as a base were used. Test samples were inoculated with a conidial suspension of Aspergillus niger DSMZ 737 and incubated for 3 days at 30° C. The targeted spore count was at approximately 10^5 spores/ml. As Minimal Inhibition Concentration (MIC) the concentration of active ingredient with no visible growth of mycelium in the cavity was defined. In addition, results were confirmed microscopically and in a culture on YGC plates.
To dissolve the different mixtures, one of the following media was used as appropriate: distilled water; distilled water+0.5% Tween 80; distilled water+0.4% Lecithine.

Molecule | MIC (Aspergillus niger, DSMZ737, 72 h) [mg/L] | Minimum Inhibition Concentration (MIC)
CCCCCCCC(=O)O [caprylic acid] | 2000 | –
O=C(O)CC(O)C(=O)O (stereo not drawn) [malic acid] | – | no MIC
cinnamon aldehyde | – | 200 ppm
